In one assay the target is T1, CYP450 3A4-M (Homo sapiens, UniProt P08684).
T1 construct: Human liver microsome incubation system was used; from tissue; host or cells: human liver microsomes
As to the kind of experiment: CYP enzyme single-point inhibition assay, 3A4-M. In kind it is in vitro ADME. The note with it: human liver microsomes, single-point method. As to the method:
Human liver microsome incubation system was used, and the single-point method was used to quickly predict the inhibition on CYP450 enzyme subtypes (1A2, 2C19, 2D6, 3A4-M, and 3A4-T) by compounds.
For 2.5 mM NADPH, 4.165 mg of NADPH (reduced nicotinamide adenine dinucleotide phosphate) was weighed and 100 mM phosphate buffer was added to a final volume of 2 mL. For 0.25 mg/mL microsomes, 50 µL of 20 mg/mL microsomes was mixed with […] of 100 mM phosphate buffer evenly.
The test example compounds were weighed, diluted to 10 mM with DMSO, and then diluted to 100 µM with 100 mM phosphate buffer.
• 1. Liver microsomes (40 µL), substrate (10 µL), and test compound (10 µL) were added to a 96-well plate, and the mixture was pre-incubated for 3 min. • 2. NADPH (40 µL) was added. • 3. At 20 min, acetonitrile stop solution containing internal standard (300 µL) was added. • 4. The mixture was centrifuged and the sample was loaded.
(In general: Liver microsomes are vesicles of endoplasmic reticulum, rich in cytochrome P450 enzymes.)

A further assay has as its target T2, AT1 receptors (Homo sapiens, UniProt P30556).
T2 construct: host or cells: HEK293
T2 sequence (P30556 1-359): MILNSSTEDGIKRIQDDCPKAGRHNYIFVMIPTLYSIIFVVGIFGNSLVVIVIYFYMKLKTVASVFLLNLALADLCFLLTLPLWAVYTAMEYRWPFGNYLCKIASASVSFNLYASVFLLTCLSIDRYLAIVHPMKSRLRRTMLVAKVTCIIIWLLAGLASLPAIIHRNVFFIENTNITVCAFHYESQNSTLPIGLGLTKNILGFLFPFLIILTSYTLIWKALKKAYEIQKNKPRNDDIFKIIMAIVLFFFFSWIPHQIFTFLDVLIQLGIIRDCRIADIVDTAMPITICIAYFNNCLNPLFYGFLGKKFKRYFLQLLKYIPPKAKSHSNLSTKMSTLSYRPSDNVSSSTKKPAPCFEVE
The experiment in a line: effect on calcium current in cells stably expressing AT1 receptors (HEK293-AT1, FLIPR, antagonist). Format: cell-based. The settings on record: 11 concentration points 10 uM to 0.17 nM. The source says:
Test example 1. Determination of the effect of the compounds of the present invention on calcium current in cells stably expressing AT1 receptors 1. Experimental objective: To test the antagonistic effect of compounds on HEK293-AT1 cell activity 2. Experimental instruments and reagents: 2.1 Instruments: • 384-well assay plate (Corning: 3764); • 384-well Echo compound plate (Labcyte: LP-0200); • 384-well compound plate (PE: 6008590); • Bravo Tip (Agilent: 10734-202); • FLIPR Tip (Molecular Device: 9000-0764); • Plate reader FLIPR Tetra (Molecular Device); • Pipetting workstation Bravo (Agilent); • ECHO 550 (LABCYTE); • Liquid injector Multidrop Combi (ThermoFisher). […] Experimental data processing method: FLIPR Tetra was used to read and collect the fluorescence signal value (RFU). The maximum RFU value was used to calculate the percent activation data based on the readings of the Low control (DMSO control) and High control (100 nM positive compound) experimental groups {% activation rate = (RFUsample - RFUlow control) / (RFUhigh control - RFUlow control)×100}. […]

These results are taken from patent EP4671240A1, “SALT CONTAINING AROMATIC RING DERIVATIVE ANTAGONIST, PREPARATION METHOD THEREFOR, AND APPLICATION THEREOF” (Jiangsu Hansoh Pharmaceutical Group Co., Ltd., priority 2023, dated 2024).

T1 sequence (P08684 whole entry): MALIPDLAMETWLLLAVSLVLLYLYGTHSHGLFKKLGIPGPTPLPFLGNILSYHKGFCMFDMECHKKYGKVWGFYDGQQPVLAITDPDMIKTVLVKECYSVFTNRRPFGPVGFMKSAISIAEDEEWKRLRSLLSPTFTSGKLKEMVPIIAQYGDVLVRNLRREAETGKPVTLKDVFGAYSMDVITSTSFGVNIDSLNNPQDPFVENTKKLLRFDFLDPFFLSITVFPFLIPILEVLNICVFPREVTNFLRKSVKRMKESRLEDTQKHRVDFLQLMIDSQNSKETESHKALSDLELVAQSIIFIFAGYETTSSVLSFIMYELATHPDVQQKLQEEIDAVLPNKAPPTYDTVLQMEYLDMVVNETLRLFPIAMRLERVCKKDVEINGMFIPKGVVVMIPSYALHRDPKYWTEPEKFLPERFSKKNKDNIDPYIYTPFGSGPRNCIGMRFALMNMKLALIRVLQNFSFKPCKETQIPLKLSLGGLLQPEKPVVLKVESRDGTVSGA

`CCCCC1=NC2(CCCC2)C(=O)N1Cc1ccc(-c2ccccc2S(=O)(=O)Nc2noc(C)c2Cl)c(COCC)c1` [Example 8, 2-[4-[(2-Butyl-4-oxo-1,3-diazaspiro[4.4]non-1-en-3-yl)methyl]-2-(ethoxymethyl)phenyl]-N-(4-chloro-5-methyl-isoxazol-3-yl)benzenesulfonamide]: the half-inhibitory concentration (IC50) (usually the midpoint of a concentration-inhibition curve) at CYP450 3A4-M was 24.9 µM; on AT1 receptors, 0.0032 µM.

With `[2H]C([2H])(c1ccc(-c2ccccc2S(=O)(=O)Nc2noc(C)c2Cl)c(COCC)c1)N1C(=O)C2(CCCC2)N=C1CCCC` [Example 2, 4'-((2-Butyl-4-oxo-1,3-diazaspiro[4.4]non-1-en-3-yl)methyl-d2)-N-(4-chloro-5-methylisoxazol-3-yl)-2'-(ethoxymethyl)-[1,1'-biphenyl]-2-sulfonamide], the IC50 on CYP450 3A4-M came to 14.7 µM; on AT1 receptors, 0.0062 µM.
